{
  "source": "patent US10537531B2",
  "about": "“Casein coated drug-loaded iron oxide nanoparticles” (Emory University, priority 2014, dated 2020)",
  "tested_on": "Caco-2 cells",
  "test": "Uptake by Caco-2 cell monolayer (fluorescence microscopy of DOX)",
  "type": "cell-based",
  "conditions": "Caco-2 monolayer, 17.2 μm, 10 min incubation",
  "method": "To investigate the cellular uptake of the released DOX from CN-DOX-IO by the small intestine in vitro, the monolayer of Caco-2 cells was incubated with CN-DOX-IO at a dosage of 17.2 μm for different lengths of time (10, 30 and 60 min). For comparison, cells incubated with DOX-IO and DOX were examined as controls. The intracellular accumulation of DOX was examined by the fluorescent microscope utilizing the fluorescence of DOX.",
  "data": [
    {"compound": "COc1cccc2c1C(=O)c1c(O)c3c(c(O)c1C2=O)C[C@@](O)(C(=O)CO)C[C@@H]3O[C@H]1C[C@H](N)[C@H](O)[C@H](C)O1", "note": "[free DOX, doxorubicin]", "values": [
      {"measurement": "intracellular localisation of DOX fluorescence signal", "result": "observed in the nucleus"}
    ]}
  ]
}
